This note sets out measurements from patent US12016831B2, “Polidocanol for use as immunomodulating agent” (priority 2018, dated 2024).

Where only a bound is given, the exact number is not on record here.

The series deals with venous, reticular or capillary vessels of treated subjects. Put plainly: Clinical observation of treated subjects: venous functionality, sclerosing effect, side effects. The series is classed as in vivo, human. The following applies: for sclerosing effect (venous, reticular or capillary parietal damage): diluted solution according to the invention, intravenous. As to the method:
It is administered parenterally via the intravenous route.
Moreover, its use, for at least 4 applications every two months, contributes in determining a higher overall well-being, associated with an anti-inflammatory activity and with the modulation of several molecular markers of the immune and endothelial system. This modulation in addition to ameliorating the venous system functionality, which is objectively observed in most of the treated subjects (95-98%) and results in a reduction of the limbs heaviness sensation and of orthostatic oedema and cellulitis, exert a systemic effects, often also accompanied by an improved skin trophism.
There is almost no evidence even of quite common reactions (0.1-1%), such as superficial thrombophlebitis, allergic dermatitis, hives, erythema, skin necrosis.
Therefore, a further aspect of the present invention is a composition comprising polidocanol in concentration below 0.1%, preferably of from 0.03 to 0.09% by weight, preferably of from 0.04 to 0.08%, preferably of 0.05%-0.06% in saline solution (0.9% w/V NaCl) for use as immunomodulating and anti-inflammatory agent.

As to Polidocanol [diluted polidocanol], the “sclerosing effect (venous, reticular or capillary parietal damage)” value was “does not exert a sclerosing effect”. For the same substance, the “treated subjects in which ameliorated venous system functionality is objectively observed” value (at least 4 applications every two months) is 95-98%. Further, the side effects entry (concentrations of the treatment according to the invention, vs traditional sclerotherapy) is “very limited to zero side effects”. The “sclerosing effect (venous, reticular or capillary parietal damage)” value (listed as polidocanol) is on record as “non-sclerosing effect”. Further, the “polidocanol concentrations having a sclerosing effect on small calibre capillaries or reticular veins” value (human, in vivo) is on record as at least 0.12%.
